# Measured values as given in patent publication US11970471B1, “3-(4-chlorophenyl)-5-{[5-methyl-2-(propan-2-yl)phenoxy]methyl }- 1,2,4-oxadiazole as an antitumor and antimicrobial compound” (KING FAISAL UNIVERSITY, priority 2023, dated 2024).
# What was measured:
# [1] = system: Human prostate cancer cells (PC3); assay: Cytotoxicity by SRB assay, PC3 cells; format: cell-based; conditions: 0.01 μM to 100 μM for 72 h
# Description: (§1) Human prostate cancer cells (PC3) and human osteosarcoma cells (MG-63) were obtained from Nawah Scientific Inc. (Mokatam, Cairo, Egypt) and cultured in DMEM (Dulbecco's modified eagle's medium), Gibco, USA, supplemented with fetal bovine serum (FBS) at a concentration of 10% and 100 U/mL of penicillin and streptomycin (PS). The cells were incubated at 37° C. in a humidified environment that contained 5% CO2. Cells were seeded in 96-well plates as aliquots of 100 μL cell suspension and incubated in a complete media for 24 h. afterward, cells were treated with 3-(4-chlorophenyl)-5-{[5-methyl-2-(propan-2-yl)phenoxy]methyl}-1,2,4-oxadiazole at diverse concentrations ranging from 0.01 μM to 100 μM for 72 h. Then, cells were fixed at 4° C. for one hour with 150 μL of 10% trichloroacetic acid (TCA). After washing the cells five times with distilled water, 70 μL of sulforhodamine (SRB) solution (0.4% w/v) was added and incubated for 10 min at room temperature in a dark place. […] Then, 150 μL of Tris pH 10.5 (10 mM) was added, and the absorbance was measured at 540 nm using a BMG LABTECH®-FLUOstar Omega microplate reader (Ortenberg, Germany). Half maximal inhibitory concentrations (IC50) values were calculated for each experiment using GraphPad Prism 6 software. […] The inhibition was calculated using the following equation: Inhibition %=100−Average Viability
# [2] = system: human osteosarcoma cells (MG-63); assay: Cytotoxicity by SRB assay, MG-63 cells; format: cell-based; conditions: 0.01 μM to 100 μM for 72 h
# Description: as §1
smiles,measurement,setting,value
"Cc1ccc(C(C)C)c(OCc2nc(-c3ccc(Cl)cc3)no2)c1 [3-(4-chlorophenyl)-5-{[5-methyl-2-(propan-2-yl)phenoxy]methyl}-1,2,4-oxadiazole]",melting point,,166 to 167 °C
same,antiproliferative activity,[1],excellent antiproliferative activities
same,antiproliferative activity,[2],excellent antiproliferative activities
